# Marks after values point to notes of the source that are not given here.
# Test: logP determination by retention times (calibration with alkan-2-ones)
# Conditions: not given
row,Structure (SMILES),chromatographic logP
1,"CCc1nc(C)c(-c2ccnc(Nc3cccc(OC)c3)n2)s1 [Example 236, 4-(2-ethyl-4-methyl-1,3-thiazol-5-yl)-N-(3-methoxyphenyl)pyrimidine-2-amine]",3
2,"CCc1nc(C)c(-c2ccnc(Nc3cccc([N+](=O)[O-])c3)n2)s1 [Example 237, 4-(2-ethyl-4-methyl-1,3-thiazol-5-yl)-N-(3-nitrophenyl)pyrimidine-2-amine]",3.14
3,"CCc1nc(C)c(-c2ccnc(Nc3cccc(C(F)(F)F)c3)n2)s1 [Example 241, 4-(2-ethyl-4-methyl-1,3-thiazol-5-yl)-N-[3-(trifluoromethyl)phenyl]pyrimidine-2-amine]",3.85
4,"COc1cccc(Nc2nccc(-c3sc(C(C)C)nc3C)n2)c1 [Example 245, 4-(2-isopropyl-4-methyl-1,3-thiazol-5-yl)-N-(3-methoxyphenyl)pyrimidine-2-amine]",3.5
5,"Cc1nc(C(C)C)sc1-c1ccnc(Nc2cccc([N+](=O)[O-])c2)n1 [Example 246, 4-(2-isopropyl-4-methyl-1,3-thiazol-5-yl)-N-(3-nitrophenyl)pyrimidine-2-amine]",3.55
6,"Cc1nc(C(C)C)sc1-c1ccnc(Nc2cccc(C(F)(F)F)c2)n1 [Example 248, 4-(2-isopropyl-4-methyl-1,3-thiazol-5-yl)-N-[3-(trifluoromethyl)phenyl]pyrimidine-2-amine]",4.3
7,"Cc1nc(C(C)C)sc1-c1ccnc(Nc2ccc(N3CCN(C)CC3)cc2)n1 [Example 249, 4-(2-isopropyl-4-methyl-1,3-thiazol-5-yl)-N-[4-(4-methylpiperazin-1-yl)phenyl]pyrimidine-2-amine]",1.71
8,"Cc1ncsc1-c1ccnc(Nc2cccc(C(F)(F)F)c2)n1 [Example 267, 4-(4-methyl-1,3-thiazol-5-yl)-N-[3-(trifluoromethyl)phenyl]pyrimidine-2-amine]",3.14
9,"COCC(C)Nc1nc(C)c(-c2ccnc(Nc3ccc(O)cc3)n2)s1 (stereo not shown) [Example 284, 4-[(4-{2-[(2-methoxy-1-methylethyl)amino]-4-methyl-1,3-thiazol-5-yl}pyrimidin-2-yl)amino]phenol]",1.4
10,"COCc1nc(C)c(-c2ccnc(Nc3cc(OC)c(OC)c(OC)c3)n2)s1 [Example 295, 4-[2-(methoxymethyl)-4-methyl-1,3-thiazol-5-yl]-N-(3,4,5-trimethoxyphenyl)pyrimidine-2-amine]",2.36
11,"COCc1nc(C)c(-c2ccnc(Nc3cccc(OC)c3)n2)s1 [Example 296, 4-[2-(methoxymethyl)-4-methyl-1,3-thiazol-5-yl]-N-(3-methoxyphenyl)pyrimidine-2-amine]",2.67
12,"COCc1nc(C)c(-c2ccnc(Nc3ccc(OC)nc3)n2)s1 [Example 298, 4-[2-(methoxymethyl)-4-methyl-1,3-thiazol-5-yl]-N-(6-methoxypyridin-3-yl)pyrimidine-2-amine]",2.13
13,"COCc1nc(C)c(-c2ccnc(Nc3cccc(C(F)(F)F)c3)n2)s1 [Example 299, 4-[2-(methoxymethyl)-4-methyl-1,3-thiazol-5-yl]-N-[3-(trifluoromethyl)phenyl]pyrimidine-2-amine]",3.41
14,"COCc1nc(C)c(-c2ccnc(Nc3ccc(C(F)(F)F)cc3)n2)s1 [Example 300, 4-[2-(methoxymethyl)-4-methyl-1,3-thiazol-5-yl]-N-[4-(trifluoromethyl)phenyl]pyrimidine-2-amine]",3.59
15,"COCc1nc(C)c(-c2ccnc(Nc3ccccc3)n2)s1 [Example 301, 4-[2-(methoxymethyl)-4-methyl-1,3-thiazol-5-yl]-N-phenylpyrimidine-2-amine]",3.01
16,"COc1cc(Nc2nccc(-c3sc(C)nc3C(F)(F)F)n2)cc(OC)c1OC [Example 310, 4-[2-methyl-4-(trifluoromethyl)-1,3-thiazol-5-yl]-N-(3,4,5-trimethoxyphenyl)pyrimidine-2-amine]",3.02
17,"Cc1nc(C(F)(F)F)c(-c2ccnc(Nc3cccc([N+](=O)[O-])c3)n2)s1 [Example 311, 4-[2-methyl-4-(trifluoromethyl)-1,3-thiazol-5-yl]-N-(3-nitrophenyl)pyrimidine-2-amine]",3.5

row,Structure (SMILES),chromatographic logP
1,"Cc1nc(C(F)(F)F)c(-c2ccnc(Nc3ccccc3)n2)s1 [Example 312, 4-[2-methyl-4-(trifluoromethyl)-1,3-thiazol-5-yl]-N-phenylpyrimidine-2-amine]",3.45
2,"COc1cc(Nc2nccc(-c3sc(SC)nc3C)n2)cc(OC)c1OC [Example 316, 4-[4-methyl-2-(methylthio)-1,3-thiazol-5-yl]-N-(3,4,5-trimethoxyphenyl)pyrimidine-2-amine]",2.76
3,"CSc1nc(C)c(-c2ccnc(Nc3ccc(C(F)(F)F)cc3)n2)s1 [Example 317, 4-[4-methyl-2-(methylthio)-1,3-thiazol-5-yl]-N-[4-(trifluoromethyl)phenyl]pyrimidine-2-amine]",4.37
4,"CSc1nc(C)c(-c2ccnc(Nc3ccccc3)n2)s1 [Example 318, 4-[4-methyl-2-(methylthio)-1,3-thiazol-5-yl]-N-phenylpyrimidine-2-amine]",3.34
5,"Cc1nc(N)sc1-c1ccnc(Nc2ccc(O)cc2)n1 [Example 323, 4-{[4-(2-amino-4-methyl-1,3-thiazol-5-yl)pyrimidin-2-yl]amino}phenol]",0.93
6,"CCc1nc(C)c(-c2ccnc(Nc3ccc(C(=O)O)cc3)n2)s1 [Example 325, 4-{[4-(2-ethyl-4-methyl-1,3-thiazol-5-yl)pyrimidin-2-yl]amino}benzoic acid]",2.16
7,"COCC(C)Nc1nc(C)c(-c2ccnc(Nc3cc(OC)c(OC)c(OC)c3)n2)s1 (stereo not shown) [Example 332, 4-{2-[(2-methoxy-1-methylethyl)amino]-4-methyl-1,3-thiazol-5-yl}-N-(3,4,5-trimethoxyphenyl)pyrimidine-2-amine]",1.85
8,"COCC(C)Nc1nc(C)c(-c2ccnc(Nc3cccc(OC)c3)n2)s1 (stereo not shown) [Example 333, 4-{2-[(2-methoxy-1-methylethyl)amino]-4-methyl-1,3-thiazol-5-yl}-N-(3-methoxyphenyl)pyrimidine-2-amine]",2.03
9,"COCC(C)Nc1nc(C)c(-c2ccnc(Nc3cccc([N+](=O)[O-])c3)n2)s1 (stereo not shown) [Example 334, 4-{2-[(2-methoxy-1-methylethyl)amino]-4-methyl-1,3-thiazol-5-yl}-N-(3-nitrophenyl)pyrimidine-2-amine]",2.2
10,"Cc1nc(N(C)C2CC2)sc1-c1ccnc(Nc2ccccc2)n1 [Example 341, 4-{2-[cyclopropyl(methyl)amino]-4-methyl-1,3-thiazol-5-yl}-N-phenylpyrimidine-2-amine]",2.43
11,"COc1cc(Nc2nccc(-c3sc(NCC4CCCO4)nc3C)n2)cc(OC)c1OC (stereo not shown) [Example 354, 4-{4-methyl-2-[(tetrahydrofuran-2-ylmethyl)amino]-1,3-thiazol-5-yl}-N-(3,4,5-trimethoxyphenyl)pyrimidine-2-amine]",1.8
12,"Cc1nc(NCC2CCCO2)sc1-c1ccnc(Nc2cccc([N+](=O)[O-])c2)n1 (stereo not shown) [Example 355, 4-{4-methyl-2-[(tetrahydrofuran-2-ylmethyl)amino]-1,3-thiazol-5-yl}-N-(3-nitrophenyl)pyrimidine-2-amine]",2.13
13,"Cc1nc(NCC2CCCO2)sc1-c1ccnc(Nc2ccccc2)n1 (stereo not shown) [Example 356, 4-{4-methyl-2-[(tetrahydrofuran-2-ylmethyl)amino]-1,3-thiazol-5-yl}-N-phenylpyrimidine-2-amine]",1.87
14,"Cc1nc(N(C)c2ccccc2)sc1-c1ccnc(Nc2ccccc2)n1 [Example 357, 4-{4-methyl-2-[methyl(phenyl)amino]-1,3-thiazol-5-yl}-N-phenylpyrimidine-2-amine]",3.21
15,"Cc1nc(C(=O)N(C)C)sc1-c1ccnc(Nc2ccccc2)n1 [Example 373, 5-(2-anilinopyrimidin-4-yl)-N,N,4-trimethyl-1,3-thiazole-2-carboxamide]",2.72
16,"CCOC(=O)c1cccc(Nc2nccc(-c3sc(C4CC4)nc3C)n2)c1 [Example 374, ethyl-3-{[4-(2-cyclopropyl-4-methyl-1,3-thiazol-5-yl)pyrimidin-2-yl]amino}benzoate]",3.56

# Same assay, conditions: HPLC, reversed-phase C 18, EEC Directive 79/831 Annex V.A8; method *: 40° C., 0.1% aqueous formic acid and acetonitrile, linear gradient 10% to 95% acetonitrile
row,Structure (SMILES),logP
1,"Cc1nc2c(s1)-c1nc(Nc3ccc(O)cc3)ncc1CC2 [Example 281, 4-[(2-methyl-4,5-dihydro[1,3]thiazole[4,5-h]quinazolin-8-yl)amino]phenol]",1.41*
2,"COc1cc(Nc2nccc(-c3sc(N(C)C)nc3C(F)(F)F)n2)cc(OC)c1OC [Example 291, 4-[2-(dimethylamine)-4-(trifluoromethyl)-1,3-thiazol-5-yl]-N-(3,4,5-trimethoxyphenyl)pyrimidine-2-amine]",3.43*
3,"CN(C)c1nc(C(F)(F)F)c(-c2ccnc(Nc3ccccc3)n2)s1 [Example 292, 4-[2-(dimethylamine)-4-(trifluoromethyl)-1,3-thiazol-5-yl]-N-phenylpyrimidine-2-amine]",3.88*
4,"COc1cccc(Nc2nccc(-c3sc(N(C)C)nc3C)n2)c1 [Example 293, 4-[2-(dimethylamine)-4-methyl-1,3-thiazol-5-yl]-N-(3-methoxyphenyl)pyrimidine-2-amine]",1.98*
5,"Cc1cc(Nc2nccc(-c3sc(N(C)C)nc3C)n2)ccc1F [Example 294, 4-[2-(dimethylamine)-4-methyl-1,3-thiazol-5-yl]-N-(4-fluoro-3-methylphenyl)pyrimidine-2-amine]",2.22*
6,"CNc1nc(C)c(-c2ccnc(Nc3cc(OC)c(OC)c(OC)c3)n2)s1 [Example 313, 4-[4-methyl-2-(methylamine)-1,3-thiazol-5-yl]-N-(3,4,5-trimethoxyphenyl)pyrimidine-2-amine]",1.53*
7,"CNc1nc(C)c(-c2ccnc(Nc3ccccc3)n2)s1 [Example 315, 4-[4-methyl-2-(methylamine)-1,3-thiazol-5-yl]-N-phenylpyrimidine-2-amine]",1.61*

# From patent publication US20090030024A1, “THIAZOLES AS FUNGICIDES” (priority 2005, published 2009)
